Experimental data as given in US6303630A, “Diarylsulfone non-nucleoside reverse transcriptase inhibitors of human immunodeficiency virus” (University of the Sciences in Philadelphia, priority 2000, dated 2001).

Experiments:
HIV-1 = experiment: NCI in vitro anti-HIV drug screen: XTT-formazan assay, protection of T4 lymphocytes (CEM) from HIV-1 cytopathic effects; type: cell-based, human immunodeficiency virus (HIV-1); details: for EC50: 144 h, HIV-1 infected CEM cells, 6 days, XTT, approximate values, read-out: EC50 (50% effective concentration against HIV cytopathic effects); for inhibition at 2 µM / activity at 2 µM: dose 2.00 × 10^-6 Molar; for inhibition at 0.2 µM / activity at 0.2 µM: dose 2.00 × 10^-7 Molar; for inhibition at 0.634 µM / activity at 0.634 µM: dose 6.34 × 10^-7 Molar; for inhibition at 20 µM: read-out: Percent of Protection, dose 2.00 × 10^-5 Molar; for inhibition at 6.33 µM: read-out: Percent of Protection, dose 6.33 × 10^-6 Molar; for inhibition at 0.0635 µM: read-out: Percent of Protection, dose 6.35 × 10^-8 Molar; for activity at 0.0635 µM: dose 6.35 × 10^-8 Molar; for TI50 (IC/EC), Therapeutic Index: IC50/EC50
Description: Compounds of the present invention were evaluated for anti-HIV efficacy by the National Cancer Institute's (NCI) In Vitro Anti AIDS Drug Discovery Program.
(§1) The NCI procedure is fully described, for example, in a bulletin provided by the National Institutes of Health, National Cancer Institute, Bethesda, Md. 20892, all of which is incorporated herein by reference. As related in the NCI bulletin, the procedure is based on O. W. Weislow et al., "New soluble-formazan assay for HIV-1 cytopathic effects: application to high flux screening of synthetic and natural products for AIDS-antiviral activity", J. Natl. Cancer Inst. 81:577-586 (1989), and is used to test for compounds active against human immunodeficiency virus (HIV), and is designed to detect compounds active at any stage of the virus reproductive cycle. As further related in the NCI bulletin, the assay includes killing of T4 lymphocytes by HIV. Amounts of HIV are added to cells, with a minimum of two cycles of virus reproduction found to be necessary to obtain the required cell killing. Compounds that interact with virions, cells, or virus gene-products to interfere with viral activities will protect cells from cytolysis. All were compared with a positive (e.g., AZT-treated) control evaluation at the same time under identical conditions. The procedure is set forth as follows:
(§2) A candidate compound is first dissolved in a suitable solvent, preferably dimethyl sulfoxide, then diluted 1:100 in cell culture medium before preparing serial half-log10 dilutions. T4 lymphocytes (CEM cell line) are then added and after a brief interval HIV-1 is added, resulting in a 1:200 final dilution of the compound. Uninfected cells with the compound serve as a toxicity control, and infected and uninfected without the compound serve as basic controls. Cultures are then incubated at 37° in a 5% carbon dioxide atmosphere for 6 days. The tetrazolium salt, XTT, is added to all wells, and cultures are incubated to allow formazan color development by viable cells. Individual wells are analyzed spectrophotometrically to quantitate formazan product, and in addition are viewed microscopically for detection of viable cells and confirmation of protective activity. Drug-treated virus-infected cells are compared with drug-treated noninfected cells and with other appropriate controls (untreated infected and untreated noninfected cells, drug-containing wells without cells, etc.) on the same plate. Data are reviewed in comparison with other tests performed at the same time and a determination as to activity is made.

[1] = tested on: T4 lymphocytes (CEM cell line); experiment: Cell growth / toxicity control in uninfected T4 lymphocytes (CEM), XTT-formazan; type: cell-based; details: Homo sapiens, CCRF-CEM; for IC50: 144 h, read-out: IC50 (50% inhibitory concentration for cell growth), uninfected CEM cells, 6 days, XTT, approximate values; for activity at 200 µM: dose 2.00 × 10^-4 Molar; for activity at 20 µM: dose 2.00 × 10^-5 Molar; for activity at 2 µM: dose 2.00 × 10^-6 Molar; for activity at 0.2 µM: dose 2.00 × 10^-7 Molar; for activity at 6.33 µM: dose 6.33 × 10^-6 Molar; for activity at 0.634 µM: dose 6.34 × 10^-7 Molar; for activity at 0.0635 µM: dose 6.35 × 10^-8 Molar
Excerpt: as §1, §2

[2] = Human immunodeficiency virus 1, CCRF-CEM
[3] = Human immunodeficiency virus 1, CCRF-CEM, dose 2.00 × 10^-4 Molar, read-out: Percent of Protection
[4] = Human immunodeficiency virus 1, CCRF-CEM, read-out: Percent of Protection
[5] = Human immunodeficiency virus 1, Lymphocyte, read-out: Percent of Control, Infected
[6] = read-out: Percent of Control, Uninfected

| SMILES | EC50 (HIV-1; [2]) | inhibition at 200 µM (HIV-1; [3]) | inhibition at 2 µM (HIV-1; [4]) | inhibition at 0.2 µM (HIV-1; [4]) | inhibition at 0.634 µM (HIV-1; [4]) | inhibition at 20 µM (HIV-1; [2]) | inhibition at 6.33 µM (HIV-1; [2]) | inhibition at 0.0635 µM (HIV-1; [2]) | activity at 2 µM (HIV-1; [5]) | activity at 0.2 µM (HIV-1; [5]) | activity at 0.634 µM (HIV-1; [5]) | activity at 0.0635 µM (HIV-1; [5]) | TI50 (IC/EC), Therapeutic Index (HIV-1) | IC50 [1] | activity at 200 µM [1, 6] | activity at 20 µM [1, 6] | activity at 2 µM [1, 6] | activity at 0.2 µM [1, 6] | activity at 6.33 µM [1, 6] | activity at 0.634 µM [1, 6] | other results |
| --- | --- | --- | --- | --- | --- | --- | --- | --- | --- | --- | --- | --- | --- | --- | --- | --- | --- | --- | --- | --- | --- |
| CN(c1ccccc1)S(=O)(=O)c1cccc([N+](=O)[O-])c1 [Compound 14, N-(3-nitrophenylsulfonyl)-N-methylaniline] | 42.5 µM | 5.28% | -6.93% | -10.9% | -13.4% | -3.74% | -3.87% | -11.1% | 6.97% | 3.54% | 1.34% | 3.37% | 3.34 × 10^0 | 142 µM | 41.5% | 83.8% | 87.2% | 93.2% | 81.3% | 87.8% | inhibition at 63.3 µM (HIV-1; Human immunodeficiency virus 1, CCRF-CEM, dose 6.33 × 10^-5 Molar, read-out: Percent of Protection): 78.3%; activity at 200 µM (HIV-1; Human immunodeficiency virus 1, Lymphocyte, dose 2.00 × 10^-4 Molar, read-out: Percent of Control, Infected): 17.6%; activity at 20 µM (HIV-1; Human immunodeficiency virus 1, Lymphocyte, dose 2.00 × 10^-5 Molar, read-out: Percent of Control, Infected): 9.75%; activity at 63.3 µM (HIV-1; Human immunodeficiency virus 1, Lymphocyte, dose 6.33 × 10^-5 Molar, read-out: Percent of Control, Infected): 81.1%; activity at 6.33 µM (HIV-1; Human immunodeficiency virus 1, Lymphocyte, dose 6.33 × 10^-6 Molar, read-out: Percent of Control, Infected): 16.4%; activity at 63.3 µM ([1]; dose 6.33 × 10^-5 Molar, read-out: Percent of Control, Uninfected): 70.2%; activity at 0.0635 µM [1, 6]: 94.8% |
| Cc1ccc(N(C)S(=O)(=O)c2ccccc2[N+](=O)[O-])cc1 [Compound 31, N-(2-nitrophenylsulfonyl)-N,4-dimethylaniline] | 12.5 µM | -0.58% | 9.89% | -1.72% | -2.85% | 73.6% | 22% | -3.51% | 14.4% | 3.37% | 2.29% | 1.67% | 31.0 × 10^0 | 388 µM | -0.75% | 84.3% | 84.1% | 95.8% | 91.1% | 89.9% | inhibition at 63.2 µM (HIV-1; Human immunodeficiency virus 1, CCRF-CEM, read-out: Percent of Protection, dose 6.32 × 10^-5 Molar): 18.4%; activity at 63.2 µM ([1]; dose 6.32 × 10^-5 Molar, read-out: Percent of Control, Uninfected): 24.6%; activity at 0.0635 µM [1, 6]: 92.9% |
